For the assay, the system named is potato 5-Lipoxygenase enzyme. Briefly: Lipoxygenase Inhibitor Screening Assay Kit (Cayman), hydroperoxide formation, absorbance 492 nm. It is filed as biochemical. The conditions noted are these: positive control at 100 μM. The procedure:
Extracts of cranberry fruit (E1) and cranberry leaf (E2) were prepared with food-grade ethanol, and then filtered and dried as described above. Research grade reagents were used for the rest of the assay preparations. Extracts were dissolved in dimethyl sulfoxide (‘DMSO’) to a final concentration of 50 mg/mL, and then diluted in appropriate buffer for each bioassay to working concentrations.
Cranberry fruit extract (E1) and cranberry leaf extract (E2) were tested for 5-LOX inhibition using the Lipoxygenase Inhibitor Screening Assay Kit (available from Cayman Chemical, Ann Arbor, Michigan, US) and potato 5-Lipoxygenase enzyme (available from Cayman Chemical). This kit measures hydroperoxides produced in the lipoxygenation reaction.
The extracts were dissolved in methanol to final working concentrations. 5-LOX enzyme, Chromagen, and Linoleic Acid solutions were prepared immediately before use. Nordihydroguaiaretic acid (‘NDGA’) was used as a positive control. 5-LOX enzyme was added to the test samples and controls and incubated for five minutes at room temperature to allow for enzyme/inhibitor interaction. Linoleic acid substrate was added to the plate to initiate the reaction, and the plate was then shaken at room temperature for 10 minutes. […] The absorbance was then read at 492 nm. Percent inhibition of the extract concentration was calculated in comparison to the uninhibited control wells. […]

Compound `CC(Cc1ccc(O)c(O)c1)C(C)Cc1ccc(O)c(O)c1` (stereo not shown) [NDGA, Nordihydroguaiaretic acid] displayed a 5-LOX enzyme inhibition of 100%.
